Measured values reported in a compilation of properties of binary mixtures (doi:10.1016/j.molliq.2014.09.006).

Assay: xn = mol fraction of the nth substance listed
Settings: 101 kPa

CCCC[n+]1ccn(C)c1.O=[N+]([O-])[O-] + CCO
viscosity [mPa·s]
Settings	x2 = 0	x2 = 0.2	x2 = 0.4	x2 = 0.6
283.15 K	400	121	46.4	18.9
288.15 K	290	93	37.8	15.9
293.15 K	210	73	–	13.5
298.15 K	–	–	26.1	11.6
303.15 K	121	47.1	22	–
308.15 K	94	–	18.8	8.84
313.15 K	74	–	16.3	7.81
318.15 K	59.4	–	–	6.95
323.15 K	48.2	22.8	12.4	6.23
328.15 K	39.6	19.6	11	5.62
333.15 K	32.9	16.9	9.8	5.1
